The numbers were not newly measured in patent publication EP0548940B1, “Insecticidal compositions” (SUMITOMO CHEMICAL COMPANY LIMITED, priority 1991, dated 1993), which cites them from elsewhere.

The conditions of this data set: at 25°C, water-diluted solution.

`O=C(O)CCCCCCCC(=O)O` [Azelaic acid]: the pKa value result was “Azelaic acid 4.8 (4.39)”.

For the molecule `OB(O)O` [Boric acid], the pKa value result is “Boric acid 4.8 (9.24)”.
